Experimental findings from ChEMBL document CHEMBL5724914, “Linking interpersonal differences in gut microbiota composition and drug biotransformation activity” (2024) are described below.

Series [1] in a line: The drug is tested on Z-024 corresponding to pig gut metagenome with ENA study accession number: PRJEB37062 and ENA sample accession number: ERS12561823 for biotransformation under anaerobic condition. The drug concentrations were measured over 9 timepoints collected between 0 and 24 hours of incubation by liquid-chromatography-coupled mass spectrometry (LC–MS). The note with it: 2 µM.

A short description of series [2]: The drug is tested on Z-025 corresponding to rabbit gut metagenome with ENA study accession number: PRJEB37062 and ENA sample accession number: ERS12561824 for biotransformation under anaerobic condition. The drug concentrations were measured over 9 timepoints collected between 0 and 24 hours of incubation by liquid-chromatography-coupled mass spectrometry (LC–MS). The note with it: 2 µM.

For series [3] the following is noted: human gut metagenome, 24 h, 2 µM.
For series [4] the following is noted: human gut metagenome, 24 h, 2 µM. The source holds these as a separate data set.
The conditions of series [5]: human gut metagenome, 24 h, 2 µM. The source holds these as a separate data set.
The nature of series [6]: The drug is tested on Z-007 corresponding to rat gut metagenome with ENA study accession number: PRJEB37062 and ENA sample accession number: ERS12561807 for biotransformation under anaerobic condition. The drug concentrations were measured over 9 timepoints collected between 0 and 24 hours of incubation by liquid-chromatography-coupled mass spectrometry (LC–MS). The note with it: 2 µM.

Series [7] is described as follows: The drug is tested on WLS-077 corresponding to human gut metagenome with ENA study accession number: PRJEB37062 and ENA sample accession number: ERS12561750 for biotransformation under anaerobic condition. The drug concentrations were measured over 9 timepoints collected between 0 and 24 hours of incubation by liquid-chromatography-coupled mass spectrometry (LC–MS). The note with it: 2 µM.

The conditions of series [8]: human gut metagenome, 24 h, 2 µM. The source holds these as a separate data set.
Series [9] in a line: The drug is tested on Z-009 corresponding to pig gut metagenome with ENA study accession number: PRJEB37062 and ENA sample accession number: ERS12561809 for biotransformation under anaerobic condition. The drug concentrations were measured over 9 timepoints collected between 0 and 24 hours of incubation by liquid-chromatography-coupled mass spectrometry (LC–MS). The note with it: 2 µM.
Also: call rule not given here.

As to `CNC(=C[N+](=O)[O-])NCCSCc1csc(CN(C)C)n1` [NIZATIDINE], the “Bacterial Biotransformation” value is recorded as “Compound NOT metabolized” in [1]; “Compound NOT metabolized” in series [2]; “Compound NOT metabolized” in series [3]; “Compound metabolized” in [4]; “Compound metabolized” in [5]; “Compound NOT metabolized” in series [6]. Further, the “Bacterial Biotransformation” value in series [7] is “Compound NOT metabolized”; in series [8], “Compound metabolized”; in series [9], “Compound NOT metabolized”.

Consider `COc1ccc2[nH]c([S+]([O-])Cc3ncc(C)c(OC)c3C)nc2c1` (stereo not drawn) [OMEPRAZOLE], for which the “Bacterial Biotransformation” value in series [1] is “Compound NOT metabolized”; in [2], “Compound metabolized”; in series [3] it was “Compound metabolized”; in series [4], “Compound metabolized”; in [5] it was “Compound metabolized”; in series [6], “Compound NOT metabolized”. Besides, the results for the “Bacterial Biotransformation” value in series [7], in series [8] and in series [9] were “Compound metabolized”, “Compound metabolized” and “Compound NOT metabolized”, respectively.

For `O=C(O)CCc1nc(-c2ccccc2)c(-c2ccccc2)o1` [OXAPROZIN], the “Bacterial Biotransformation” value in series [1] is recorded as “Compound NOT metabolized”; in series [2] it was “Compound metabolized”; in [3], “Compound NOT metabolized”; in [4], “Compound metabolized”; in series [5], “Compound metabolized”; in series [6], “Compound NOT metabolized”. In addition, the “Bacterial Biotransformation” value is listed as “Compound metabolized” in series [7], “Compound metabolized” in series [8] and “Compound NOT metabolized” in [9].

On to `CC(C)(C)NC[C@H](O)COc1ccccc1C1CCCC1.CC(C)(C)NC[C@H](O)COc1ccccc1C1CCCC1.O=S(=O)(O)O` [PENBUTOLOL SULFATE], for which the “Bacterial Biotransformation” value in series [1] is reported as “Compound metabolized”; in series [2], “Compound NOT metabolized”; in [3] it was “Compound metabolized”; in series [4], “Compound metabolized”; in [5] it was “Compound metabolized”; in series [6] it was “Compound NOT metabolized”. Moreover, the “Bacterial Biotransformation” value in [7], in series [8] and in series [9] was “Compound metabolized” throughout.

Turning to `CCOc1ccc(NC(C)=O)cc1` [PHENACETIN], the “Bacterial Biotransformation” value in series [1], in [2], in series [3], in series [4], in series [5] and in series [6] was “Compound NOT metabolized” throughout. Besides, the “Bacterial Biotransformation” value in [7], in [8] and in series [9] was “Compound NOT metabolized” each time.

For `Nc1ccc(/N=N/c2ccccc2)c(N)n1` [PHENAZOPYRIDINE], the “Bacterial Biotransformation” value in series [1], in series [2], in series [3], in series [4], in [5] and in [6] was “Compound metabolized” in each case. Moreover, the “Bacterial Biotransformation” value in [7], in [8] and in series [9] was “Compound metabolized” throughout.

For the compound `CC(C(=O)O)c1ccc2c(c1)Cc1cccnc1O2` (stereo not drawn) [PRANOPROFEN], the “Bacterial Biotransformation” value in series [1] was “Compound NOT metabolized”; in series [2], “Compound metabolized”; in [3] it was “Compound metabolized”; in series [4], “Compound metabolized”; in series [5], “Compound metabolized”; in series [6], “Compound NOT metabolized”. In addition, the “Bacterial Biotransformation” value in series [7], in series [8] and in series [9] was “Compound metabolized” in each case.

Regarding `CCc1nc(N)nc(N)c1-c1ccc(Cl)cc1` [PYRIMETHAMINE], the “Bacterial Biotransformation” value in series [1] is recorded as “Compound metabolized”; in series [2], “Compound NOT metabolized”; in series [3], “Compound NOT metabolized”; in [4], “Compound metabolized”; in [5], “Compound NOT metabolized”; in [6] it was “Compound NOT metabolized”. For the same compound, the “Bacterial Biotransformation” value in [7], in series [8] and in series [9] was “Compound NOT metabolized” each time.

Turning to `COc1ccccc1OCC(O)CN1CCN(CC(=O)Nc2c(C)cccc2C)CC1` (stereo not drawn) [RANOLAZINE], the “Bacterial Biotransformation” value in series [1], in series [2], in [3], in series [4], in series [5] and in series [6] was “Compound NOT metabolized” throughout. In addition, the “Bacterial Biotransformation” value in [7], in series [8] and in [9] was “Compound NOT metabolized” throughout.

Regarding `Cc1nc2n(c(=O)c1CCN1CCC(c3noc4cc(F)ccc34)CC1)CCCC2` [RISPERIDONE], the “Bacterial Biotransformation” value in series [1], in series [2], in [3], in [4], in series [5] and in [6] was “Compound metabolized” throughout. Moreover, the “Bacterial Biotransformation” value in series [7], in series [8] and in series [9] was “Compound metabolized” throughout.

In the case of `CN(C)CCc1c[nH]c2ccc(Cn3cncn3)cc12.O=C(O)c1ccccc1` [RIZATRIPTAN BENZOATE], the “Bacterial Biotransformation” value in series [1], in series [2], in [3], in series [4], in [5] and in series [6] was “Compound NOT metabolized” throughout. The “Bacterial Biotransformation” value in [7], in series [8] and in [9] was “Compound NOT metabolized” each time.

Turning to `CCCc1nn(C)c2c(=O)[nH]c(-c3cc(S(=O)(=O)N4CCN(C)CC4)ccc3OCC)nc12.O=C(O)CC(O)(CC(=O)O)C(=O)O` [SILDENAFIL CITRATE], the “Bacterial Biotransformation” value in [1] was “Compound metabolized”; in series [2], “Compound metabolized”; in [3], “Compound NOT metabolized”; in [4], “Compound NOT metabolized”; in [5], “Compound NOT metabolized”; in series [6], “Compound NOT metabolized”. For the same compound, the “Bacterial Biotransformation” value in series [7], in series [8] and in series [9] was “Compound NOT metabolized” in each case.
